Measured values taken from the supplement of paper PMC10307832.

How the values were obtained:
Assay in all cases: relative viability (nuclei count vs DMSO), 5 days (fraction); higher = more cells survive
Selisistat + Palbociclib = compound: C1CC(C2=C(C1)C3=C(N2)C=CC(=C3)Cl)C(=O)N [Selisistat] + CC(=O)c1c(C)c2cnc(Nc3ccc(N4CCNCC4)cn3)nc2n(C2CCCC2)c1=O [Palbociclib] (partner 0.5 µM)
In short: (§1)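 Medians of duplicate plates are given as relative viability. That measure is the nuclei count in treated wells divided by the count in vehicle wells. Counts were taken on 4× images of lung cancer cell lines in 1536-well plates, 5 days after pin-tool dosing the day after seeding with one drug alone or a fixed anchor-drug dose plus five library-drug doses (not always all listed) in √10 steps.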

Serdemetan + Decitabine = compound: c1ccc2c(CCNc3ccc(Nc4ccncc4)cc3)c[nH]c2c1 [Serdemetan] + Nc1ncn([C@H]2C[C@H](O)[C@@H](CO)O2)c(=O)n1 [Decitabine] (partner 2 µM)
In short: as §1

Selisistat + AZD7762 = compound: C1CC(C2=C(C1)C3=C(N2)C=CC(=C3)Cl)C(=O)N [Selisistat] + NC(=O)Nc1cc(-c2cccc(F)c2)sc1C(=O)N[C@H]1CCCNC1 [AZD7762] (partner 0.2 µM)
In short: as §1

Serdemetan + Crizotinib = compound: c1ccc2c(CCNc3ccc(Nc4ccncc4)cc3)c[nH]c2c1 [Serdemetan] + C[C@@H](Oc1cc(-c2cnn(C3CCNCC3)c2)cnc1N)c1c(Cl)ccc(F)c1Cl [Crizotinib] (partner 1 µM)
In short: as §1

Cell Line	relative viability (Selisistat + Palbociclib; first compound 0.4 µM)	relative viability (Selisistat + Palbociclib; first compound 1.265 µM)	relative viability (Selisistat + Palbociclib; first compound 4 µM)	relative viability (Selisistat + Palbociclib; first compound 12.65 µM)	relative viability (Selisistat + Palbociclib; first compound 40 µM)	relative viability (Serdemetan + Decitabine; first compound 0.04 µM)	relative viability (Serdemetan + Decitabine; first compound 0.1265 µM)	relative viability (Serdemetan + Decitabine; first compound 0.4 µM)	relative viability (Serdemetan + Decitabine; first compound 1.265 µM)	relative viability (Serdemetan + Decitabine; first compound 4 µM)	relative viability (Selisistat + AZD7762; first compound 0.4 µM)	relative viability (Selisistat + AZD7762; first compound 1.265 µM)	relative viability (Selisistat + AZD7762; first compound 4 µM)	relative viability (Selisistat + AZD7762; first compound 12.65 µM)	relative viability (Selisistat + AZD7762; first compound 40 µM)	relative viability (Serdemetan + Crizotinib; first compound 0.04 µM)	relative viability (Serdemetan + Crizotinib; first compound 0.1265 µM)	relative viability (Serdemetan + Crizotinib; first compound 0.4 µM)	relative viability (Serdemetan + Crizotinib; first compound 1.265 µM)	relative viability (Serdemetan + Crizotinib; first compound 4 µM)
NCI-H1651	0.508	0.532	0.499	0.474	0.517	0.486	0.414	0.497	0.275	0.289	0.426	0.491	0.462	0.521	0.523	0.82	0.79	0.793	0.462	0.356
NCI-H441	0.24	0.186	0.136	0.217	0.239	0.256	0.22	0.249	0.219	0.172	1.19	1.06	1.29	0.969	1.32	0.721	0.713	0.649	0.487	0.596
LCLC-103H	0.3	0.509	0.452	0.435	0.558	0.73	0.663	0.426	0.587	0.687	0.807	0.744	0.853	0.751	0.749	0.977	1.12	0.979	0.94	0.995
LCLC-97TM1	0.234	0.256	–	0.214	0.249	0.232	0.213	0.239	0.175	0.165	0.187	0.208	–	0.342	0.183	0.361	0.314	0.351	0.233	0.189
NCI-H727	0.738	0.613	0.442	0.601	0.637	0.849	0.797	0.828	0.965	0.826	0.675	0.563	0.369	0.615	0.527	1.01	0.638	0.665	0.427	0.439
NCI-H1355	0.432	0.401	0.389	0.438	0.437	0.382	0.34	0.306	0.288	0.31	0.774	0.753	0.717	0.819	0.814	0.97	1	1.02	1.06	0.781
HOP-62	0.43	0.43	0.508	0.424	0.619	0.195	0.256	0.22	0.196	0.177	0.62	0.568	0.696	0.633	1.2	0.719	0.995	0.684	0.857	0.494
NCI-H2085	0.486	0.476	0.433	0.522	0.496	0.541	0.582	0.485	0.324	0.374	1.06	1.02	0.67	0.992	0.983	0.688	0.817	0.733	0.627	0.561
